Laboratory results as given in patent publication US20240398943A1, “METHODS OF TREATING CANCER AND THE PHARMACEUTICAL COMPOSITIONS THEREOF” (SYSTIMMUNE, INC., priority 2021, published 2024).
Where “and” joins values, the source holds several entries; their conditions need not be identical. Identical values can stand only once. Like-named read-outs stand apart in the source and are kept apart here.

What was measured:
[1] = test system: FaDu cells (wild type EGFR) tumor xenograft
Method: (§1) Xenotransplantation of human cancer cells into immunocompromised mice is a gold-standard model used for pre-clinical oncology research and testing of anti-cancer therapies. In general, human cancer cell lines are injected below the skin of the mouse. […] The primary outcome parameter is growth inhibition by the drug, for which tumor size is measured over time, often externally with calipers. After the tumor reaches a certain size, the mice are euthanized. Drug effects on the tumor are further analyzed on a tissue level or molecular level (e.g., DNA, proteins). The primary outcome parameter of a xenograft model for testing drug efficacy is the growth of the treated tumor versus control. Typically, xenograft tumors grow from 100 mm^3 (6 mm diameter) to 1000 mm^3 (12 mm diameter) in several weeks. The growth rate often declines with larger tumor sizes, as opposed to exponential growth in (2D) in vitro experiments. Tumor growth inhibition varies per drug and implanted cell line. The effect of therapeutics can be directly on tumor cells, or indirectly via the microenvironment such as the inhibition of vessel formation, or both.
(§2) The experiment animals used were of Balb/c-nu mouse, female, ages 5^˜7 weeks, weight 17^˜21 g.
To establish xenograft model of HNSCC, human head and neck cancer cells, FaDu cells, were transplanted into the mice to establish the xenograft model of HNSCC. FaDu is a cell line isolated from a hypopharyngeal tumor of a squamous cell carcinoma patient, which expresses wild type EGFR (ATCC).
(§3) Each of the three human cancer cell lines was cultured in RPMI1640 medium containing 10% fetal bovine serum, collected in the exponential growth phase, resuspended in PBS to a suitable concentration, and used for subcutaneous tumor implantation in mice.
When the tumor grew to an average volume of about 230 mm3, randomly grouped according to tumor size and mouse weight to establish human head and neck squamous cell carcinoma cells FaDu xenograft model.
(§4) Tumor volume (mm3) V=½×(a×b)^2, where a represents the long diameter and b represents the short diameter. Relative tumor volume (RTV), RTV=Vt/V0, where V0 is the tumor volume at time 0 and Vt is the tumor volume after treatment at time t. The T/C value (%) is an indicator of the tumor response to treatment and is the most used evaluation indicator. T/C %=TRTV/CRTV×100%, where TRTV is treatment group average RTV and CRTV is control group average RTV. The T/C value (%) can also be calculated as T/C %=TTW/CTW×100%, where TTW is the average tumor weight at the end of the treatment group experiment and CTW is the average tumor weight at the end of the control group experiment.

[2] = test system: HCC827_936 cells (EGFR exon19del and exon20ins) tumor xenograft
Method: as §1, §2
(§5) To establish xenograft model of NSCLC, two lung cancer cell lines expressing were used. Human lung adenocarcinoma cell line HCC827_936 was clonally derived from HCC827 cell line isolated from NSCLC tissue of a patient (ATCC). HCC827_936 cells express EGFR mutations of exon19del and exon20ins. The other lung cancer cell line, NCI-H1975 cells (ATCC), express the EGFR L858R/T790M double mutation.
as §3
When the tumor grew to an average volume of about 163 mm^3, randomly grouped according to tumor size and mouse weight to establish HCC827_936 xenograft model.
as §4, with “(mm^3)” for “(mm3)”

[3] = test system: NCI-H1975 cells (EGFR L858R/T790M) tumor xenograft
Method: as §1, §2, §5, §3
When the tumor grew to an average volume of about 170 mm^3, randomly grouped according to tumor size and mouse weight to establish […] NCI-H1975 xenograft model.
as §4, with “(mm^3)” for “(mm3)”

[4] = Osimertinib 96 mg/kg/wk p.o. QD, Day 31
[5] = Osimertinib 96 mg/kg p.o. QD, Day 25

Compound | body weight / weight loss ([1]; all dose groups of the treatment) | death of mice before the end of the experiment ([1]; all dose groups of the treatment, 5 mice per group) | mortality rate ([1]; paclitaxel 20.6 + carboplatin 28 mg/kg i.v. QW) [%] | mice with severe weight loss (>20%) before death ([1]; paclitaxel 20.6 + carboplatin 28 mg/kg i.v. QW, of the 4 mice that died) | TGI ([1]; paclitaxel […] + carboplatin 28 mg/kg i.v. QW) [%] | T/C [2, 4] [%] | Tumor volume x ± SD [2, 4] [mm^3] | mortality rate ([2]; Osimertinib single-agent (96 mg/kg), before D31) [%] | mice died before D31 ([2]; female, Balb/c-nu, mouse, in vivo) | TGI ([2]; mouse, in vivo) | Tumor volume x ± SD ([2]; mouse, in vivo) [mm^3] | T/C [3, 5] [%] | Tumor volume x ± SD [3, 5] [mm^3] | TGI ([3]; mouse, in vivo) | Tumor volume x ± SD ([3]; mouse, in vivo) [mm^3] | mice died before D25 ([3]; mouse, in vivo)
paclitaxel+carboplatin | fluctuated significantly | 4 | 80 | 3 | 56.16 |  |  |  |  |  |  |  |  |  |  | 
C=CC(=O)Nc1cc(Nc2nccc(-c3cn(C)c4ccccc34)n2)c(OC)cc1N(C)CCN(C)C [Osimertinib] |  |  |  |  |  | 45.1 | 344.53 | 60 | 3 | 54.89% and 54.9% | 344.5 ± 23.6 | 4.7 | 75.02 | 95.35% and 95.4% | 75.0 ± 60.3 | no mouse died
